Numbered stars: 1 amine (or outer) side, 2 acyl side, 3 side chain; on linkers, the order of the positions; unused ones are H or OH. Square brackets hold non-standard residues; d marks the D form. Peptide text beside a SMILES is read from it. * marks the point of attachment. βAsp = O=C(O)[C@H](CC(=O)[*:2])N[*:1]; AMC = Cc1cc(=O)oc2cc(N*)ccc12
Tests used:
[1] = target: T1, recombinant human active Caspase-3 (Homo sapiens, UniProt P42574); assay: ChiCAS: chiral-selective in vitro DEVD-ase assay; format: biochemical; conditions: for caspase-3 activity: substrate 20 µM in HEPES assay buffer with 10 mM DTT, fluorescence at 460 nm; for cleavage by Caspase-3 (in words): recombinant human Caspase-3, fluorogenic AMC substrates
T1 construct: Assay was performed with recombinant human active Caspase-3 (556471, BD Biosciences); purchased BD Biosciences 556471
T1 sequence (P42574 29-175 limits assumed): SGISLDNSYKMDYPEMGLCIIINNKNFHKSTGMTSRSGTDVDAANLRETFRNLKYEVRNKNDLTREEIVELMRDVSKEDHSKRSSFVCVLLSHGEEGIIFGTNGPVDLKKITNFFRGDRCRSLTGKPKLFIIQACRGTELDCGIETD
T1 sequence (P42574 176-277 limits assumed): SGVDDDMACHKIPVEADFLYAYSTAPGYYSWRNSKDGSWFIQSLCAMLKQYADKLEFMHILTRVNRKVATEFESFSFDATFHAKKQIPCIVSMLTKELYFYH
Method: The following homochiral and heterochiral fluorogenic substrates were chemically synthesised: Ac-DEV-(L-aspartate)-AMC (positive control), Ac-DEV-(iso-L-aspartate)-AMC, Ac-DEV-(D-aspartate)-AMC, Ac-DEV-(iso-D-aspartate)-AMC, Ac-DEVG-AMC and Ac-DEV-(L-alanine)-AMC (negative control) and […] (custom peptide synthesis by GenScript). All synthetic peptides were dissolved in DMSO and stored at -80 °C. Reactions were performed as described below. Ac-DEVx-AMC substrates were used in a final concentration of 20 μM in assay buffer (50 mM HEPES, 100 mM NaCl, 0,1% CHAPS, 1 mM EDTA, 10% Glycerol, 10 mM DTT - immediately added before use). Assay was performed with recombinant human active Caspase-3 (556471, BD Biosciences). Reactions were performed in 96 well microplates (100 μl/reaction) and caspase activity was monitored spectrophotometrically by the increase in fluorescence at 460 nm using Synergy 4 BioTek fluorescence absorbance microplate reader and Gen5 program.

[2] = design: method as in earlier work; conditions: ref http://www.ilo.org/dyn/icsc/showcard.display?p_version=2&p_card_id=1439; cited from earlier work
[3] = target: T2, purified recombinant human Pimt (Homo sapiens, UniProt P22061); assay: Pimt colorimetric continuous enzyme coupled assay (SAM methyltransferase colorimetric assay); format: biochemical; conditions: Pimt 1 µM, substrate 100 µM, 37 °C
T2 construct: purchased Gentaur MBS144034
Method: SAM Methyltransferase colorimetric assay (Merck) was used to measure the activity of purified recombinant human Pimt (EC 2.1.1.77, MBS144034, Gentaur) on different target substrates at 37 °C. Pimt (1 µM final concentration) enzymatic activity was followed spectrophotometrically by the increase in absorbance at 510 nm using DeNovix DS-11 Series microvolume Spectrophotometer/Fluorometer. Assay was performed on different homo- and heterochiral synthetic substrates Ac-[…]-amide (Peptide 1), Ac-KRKGDEV-(iso-L-Asp)-GVDEVAK-amide (Peptide 2) (both of which HPLC purity is >90%), at 100 µM final concentration. The peptide’s sequence is identical and correspond to the PARP1 fragment which is cleaved by Dcp-1 in the in vivo cleavage assay.

T2 sequence (P22061 whole entry): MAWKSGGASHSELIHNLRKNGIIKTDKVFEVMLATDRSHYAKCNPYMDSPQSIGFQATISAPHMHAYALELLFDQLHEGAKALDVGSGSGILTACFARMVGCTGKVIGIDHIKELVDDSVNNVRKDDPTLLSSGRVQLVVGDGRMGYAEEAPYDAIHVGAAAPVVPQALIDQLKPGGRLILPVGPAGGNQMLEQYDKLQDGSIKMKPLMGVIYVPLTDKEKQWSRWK

Row | SMILES | caspase-3 activity ([1]; experiment 1) | caspase-3 activity ([1]; experiment 2) | caspase-3 activity ([1]; experiment 3) | cleavage by Caspase-3 (in words) [1] | Octanol/water partition coefficient as log Pow [2] | Pimt enzymatic activity (in words) [3]
1 | CC(=O)N[C@@H](CC(=O)O)C(=O)N[C@@H](CCC(=O)O)C(=O)N[C@H](C(=O)N[C@@H](C)C(=O)Nc1ccc2c(C)cc(=O)oc2c1)C(C)C [Ac-DEVA-AMC, acetyl-DEVA-7-amido-4-methylcoumarin] (Ac-DEVA-{AMC}) | 396 R.F.U. | 61 R.F.U. | 164 R.F.U. | non-cleavable |  | 
2 | CC(=O)N[C@@H](CC(=O)O)C(=O)N[C@@H](CCC(=O)O)C(=O)N[C@H](C(=O)NCC(=O)Nc1ccc2c(C)cc(=O)oc2c1)C(C)C [Ac-DEVG-AMC, acetyl-DEVG-7-amido-4-methylcoumarin] (Ac-DEVG-{AMC}) | 650 R.F.U. | 558 R.F.U. | 613 R.F.U. | non-cleavable |  | 
3 | N[C@@H](CC(=O)O)C(=O)O [AsparticAcid] |  |  |  |  | -3.89 | 
4 | CC(=O)N[C@@H](CCCCN)C(=O)N[C@@H](CCCNC(=N)N)C(=O)N[C@@H](CCCCN)C(=O)NCC(=O)N[C@@H](CC(=O)O)C(=O)N[C@@H](CCC(=O)O)C(=O)N[C@H](C(=O)N[C@@H](CC(=O)O)C(=O)NCC(=O)N[C@H](C(=O)N[C@@H](CC(=O)O)C(=O)N[C@@H](CCC(=O)O)C(=O)N[C@H](C(=O)N[C@@H](C)C(=O)N[C@@H](CCCCN)C(N)=O)C(C)C)C(C)C)C(C)C [Peptide 1] (Ac-KRKGDEVDGVDEVAK-NH2) |  |  |  |  |  | no enzymatic activity was detected
5 | CC(=O)N[C@@H](CCCCN)C(=O)N[C@@H](CCCNC(=N)N)C(=O)N[C@@H](CCCCN)C(=O)NCC(=O)N[C@@H](CC(=O)O)C(=O)N[C@@H](CCC(=O)O)C(=O)N[C@H](C(=O)N[C@@H](CC(=O)NCC(=O)N[C@H](C(=O)N[C@@H](CC(=O)O)C(=O)N[C@@H](CCC(=O)O)C(=O)N[C@H](C(=O)N[C@@H](C)C(=O)N[C@@H](CCCCN)C(N)=O)C(C)C)C(C)C)C(=O)O)C(C)C [Peptide 2] (Ac-KRKGDEV[βAsp]GVDEVAK-NH2) |  |  |  |  |  | active Pimt enzymatic activity
